By inhibition is commonly meant the change of the read-out against control, counted positive when it falls. Broadly, the IC50 is the point on the concentration scale where inhibition reaches its midpoint. The low end stands for greater potency in that assay, the high end for weaker potency in that assay.

The source of these data is article PMC11233931, “Remodeling tumor‐associated macrophage for anti‐cancer effects by rational design of irreversible inhibition of mitogen‐activated protein kinase‐activated protein kinase 2” (MedComm, 2024).

Molecules are shown by their SMILES.

Data set [1] concerns the target T1, 380 human recombinant protein kinases (Homo sapiens, UniProt Q08881).
T1 construct: purchased Eurofins (Celle Lévescault)
T1 sequence (Q08881 1-620): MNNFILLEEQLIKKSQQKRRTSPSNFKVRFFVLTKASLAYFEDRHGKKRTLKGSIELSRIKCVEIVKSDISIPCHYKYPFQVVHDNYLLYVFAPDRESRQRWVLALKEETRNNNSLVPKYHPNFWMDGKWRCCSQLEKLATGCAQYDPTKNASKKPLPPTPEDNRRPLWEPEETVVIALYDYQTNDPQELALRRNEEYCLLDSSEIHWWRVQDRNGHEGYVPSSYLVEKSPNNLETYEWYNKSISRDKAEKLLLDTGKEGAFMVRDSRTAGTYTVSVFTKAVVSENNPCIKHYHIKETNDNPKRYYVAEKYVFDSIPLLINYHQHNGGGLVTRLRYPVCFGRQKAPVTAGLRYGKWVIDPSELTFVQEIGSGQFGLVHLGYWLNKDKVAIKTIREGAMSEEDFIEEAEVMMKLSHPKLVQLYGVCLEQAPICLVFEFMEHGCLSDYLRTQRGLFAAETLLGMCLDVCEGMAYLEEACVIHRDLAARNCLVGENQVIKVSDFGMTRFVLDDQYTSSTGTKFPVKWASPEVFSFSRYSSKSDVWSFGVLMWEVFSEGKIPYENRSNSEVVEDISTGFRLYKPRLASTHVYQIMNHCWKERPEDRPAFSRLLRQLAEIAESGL
Nature of the data set: Eurofins kinase selectivity profile against 380 other human recombinant kinases (Table S2). The data set is classed as biochemical. To be noted: Itk(h), read-out: Inhibition rate. On the procedure: (§1) Subsequently, to ascertain whether the high potency of compound 11 was specific for MK2, an additional 380 human recombinant protein kinases were screened.
(§2) To assess the impact of various compounds on MK2 kinase activity, we utilized the ADP‐Glo Assay Kit (Promega) following the manufacturer's instructions. Luminescence measurements were taken using a SpectraMax Paradigm reader. The inhibition percentage was calculated using the following formula: ((specific signalDMSO control − specific signal inhibitor)/(specific signalDMSO control)) × 100%. The IC50 values were determined employing dose–response curve fitting via Prism (Graph Pad). Additionally, Eurofins company (Celle Lévescault) conducted the analysis on compound 11’s inhibitory activity against 380 other human recombinant kinases at various concentrations.

For data set [2], the target named is T2, 380 human recombinant protein kinases (Homo sapiens, UniProt Q8N5S9).
T2 construct: purchased Eurofins (Celle Lévescault)
T2 sequence (Q8N5S9 whole entry): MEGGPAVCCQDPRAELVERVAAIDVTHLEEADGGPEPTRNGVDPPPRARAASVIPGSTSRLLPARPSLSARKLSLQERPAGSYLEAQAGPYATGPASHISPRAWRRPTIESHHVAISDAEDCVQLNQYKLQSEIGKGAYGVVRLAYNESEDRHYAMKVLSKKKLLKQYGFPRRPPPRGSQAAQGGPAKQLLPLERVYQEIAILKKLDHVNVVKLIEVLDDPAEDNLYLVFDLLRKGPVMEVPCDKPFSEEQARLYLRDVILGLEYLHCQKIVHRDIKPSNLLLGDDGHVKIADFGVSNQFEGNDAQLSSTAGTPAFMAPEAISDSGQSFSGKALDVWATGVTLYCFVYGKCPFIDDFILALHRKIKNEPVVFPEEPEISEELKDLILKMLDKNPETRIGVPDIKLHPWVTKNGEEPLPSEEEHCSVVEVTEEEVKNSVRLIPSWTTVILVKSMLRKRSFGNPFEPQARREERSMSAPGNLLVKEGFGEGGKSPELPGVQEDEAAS
The data set is described as above. The data set is classed as biochemical. The settings on record: CaMKK1(h), read-out: Inhibition rate. On the procedure:
as §1, §2

The target in data set [3] is T3, 380 human recombinant protein kinases (Homo sapiens, UniProt Q9Y2H1).
T3 construct: purchased Eurofins (Celle Lévescault)
T3 sequence (Q9Y2H1 whole entry): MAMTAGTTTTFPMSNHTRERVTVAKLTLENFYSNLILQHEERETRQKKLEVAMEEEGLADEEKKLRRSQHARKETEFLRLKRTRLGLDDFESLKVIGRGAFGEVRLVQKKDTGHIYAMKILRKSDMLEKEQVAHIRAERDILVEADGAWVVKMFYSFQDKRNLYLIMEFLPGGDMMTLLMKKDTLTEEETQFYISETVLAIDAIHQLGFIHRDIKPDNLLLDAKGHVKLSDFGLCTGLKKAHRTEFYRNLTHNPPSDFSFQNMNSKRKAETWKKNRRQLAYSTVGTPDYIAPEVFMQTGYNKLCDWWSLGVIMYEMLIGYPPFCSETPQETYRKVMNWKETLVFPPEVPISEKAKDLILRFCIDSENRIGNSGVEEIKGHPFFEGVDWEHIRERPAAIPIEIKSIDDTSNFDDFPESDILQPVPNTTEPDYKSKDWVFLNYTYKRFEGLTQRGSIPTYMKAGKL
The data set is described as above. In kind it is biochemical. To be noted: NDR2(h), read-out: Inhibition rate. The protocol: as §1, §2

The target in data set [4] is T4, 380 human recombinant protein kinases (Homo sapiens, UniProt Q16654).
T4 construct: purchased Eurofins (Celle Lévescault)
T4 sequence (Q16654 whole entry): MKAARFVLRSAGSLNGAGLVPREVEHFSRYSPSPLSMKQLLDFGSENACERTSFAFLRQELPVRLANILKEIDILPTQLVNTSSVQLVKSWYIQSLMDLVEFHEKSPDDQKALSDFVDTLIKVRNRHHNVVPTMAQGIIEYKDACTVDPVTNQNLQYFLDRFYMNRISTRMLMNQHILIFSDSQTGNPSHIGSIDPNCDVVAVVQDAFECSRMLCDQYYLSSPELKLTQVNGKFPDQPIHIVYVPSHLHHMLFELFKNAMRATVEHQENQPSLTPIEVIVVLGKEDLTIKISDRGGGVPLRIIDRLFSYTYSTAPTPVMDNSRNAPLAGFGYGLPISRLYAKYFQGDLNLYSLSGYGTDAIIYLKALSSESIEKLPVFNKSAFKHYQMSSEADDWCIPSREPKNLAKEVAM
Described as above. The settings on record: PDHK4(h), read-out: Inhibition rate. In kind it is biochemical. The protocol: as §1, §2

In a further data set the test system is VEGF mRNA in THP-1 cells. The data set is described as follows: RT-PCR of VEGF in IL-4/IL-13 stimulated THP-1 cells. The data set is classed as cell-based, human. To be noted: IL-4/IL-13, 12 h. An excerpt:
Following this line of investigation, we employed siRNA for the transient knockdown of MK2 in THP‐1 monocyte‐ differentiated macrophages. […] M2 macrophages play a pivotal role in promoting tumor angiogenesis through the secretion of critical factors like VEGF, which facilitate tumor neovascularization.[17] […] These findings further validate the significance of MK2 in the M2 polarization of macrophages and illustrate how compound 11, by targeting MK2, suppresses the pro‐tumorigenic phenotype of macrophages.
Total RNA was extracted from cultured cells using the EZ‐press RNA Purification Kit (EZBioscience). Complementary DNA was synthesized using the ABScript III RT Master Mix for qPCR with gDNA remover (ABclonal Technology) and was quantified with primers listed in Table S5. The relative mRNA expression levels were quantified through qPCR using the SYBR green gene expression assay (ABclonal Technology).
Figure S3 Inhibition of pro-tumorigenic M2-like polarization in macrophages by compound 11. (A) Illustrates the treatment effects on various macrophage cells using Western blot analysis post IL-4/IL-13 exposure (30 minutes or the specified time period). (B) Examines CD206 expression in RAW264.7 cells via flow cytometry post 48hours treatment of compound 11 and IL-4/IL-13. […] IL-4/IL-13 (20 ng/mL) served as the stimulation control, while untreated cells were the baseline control. […]

Data set [5] can be described thus: Cytotoxicity assays, summary over all cell lines. In kind it is cell-based. To be noted: range over three normal and six tumor cell lines. An excerpt: MK2, as a pivotal regulator of the well‐acknowledged p38 inflammation signaling pathway, is increasingly recognized for its critical role in the initiation and progression of cancer. Through an analysis of the clinical data from the TCGA database, we found the significant impact of MK2 on cancer. […] Moreover, macrophages are abundant in cancer, and such abundance correlates with poor prognosis in most malignancie.[17], [18], [19], [20] […] Additionally, the knockdown of MK2 using specific siRNA in macrophages also led to the downregulation of M2 markers. […] Moreover, compound 11’s effect on macrophages extended to inhibition of typical proinflammatory cytokines and crucial factors in inflammation‐driven tumorigenesis. […] These findings bolster the rationale for pursuing the development and application of MK2 inhibitors in the treatment of inflammation‐driven or macrophage‐rich cancers.
Cells was plated into 96-well plates and incubated overnight prior to introduction of varying concentrations of compounds or control solvent. Following a 72-hour exposure period, cell viability was determined using a Cell Counting Kit-8 assay (Life-iLab, China). Dose-response curves were fitted using a four-parameter method facilitated by SoftMax Pro, which was subsequently used for the computation of IC50 values.

As to `C=CC(=O)Nc1cc(-c2cc(-c3cc4c([nH]3)CCNC4=O)ccn2)ccc1OC(F)(F)F` [compound 11], the inhibition at 0.01 µM in data set [1] (10 nM) was 1%; in data set [2] (10 nM), -7%; in data set [3] (10 nM), -5%; in data set [4] (10 nM), -5%. The inhibition at 0.1 µM in data set [1] (100 nM) was -2%; in data set [2] (100 nM) it was 4%; in data set [3] (100 nM), -10%; in data set [4] (100 nM), -7%. Besides, the inhibition at 1 µM in data set [1] (1000 nM) was 3%; in data set [2] (1000 nM), 11%; in data set [3] (1000 nM) it was -2%; in data set [4] (1000 nM) it was -19%. In addition, the “effect on relative mRNA level of VEGF” value in the data set on VEGF mRNA in THP-1 cells is “inhibited”. In data set [5], this compound yielded an IC50 at 72 h of 30 to 50 µM.
